Twelve compounds from patent US11919888B2, “Neprilysin inhibitors” (THERAVANCE BIOPHARMA R&D IP, LLC, priority 2012, dated 2024) can be followed below.

The target of this experiment is T1, human NEP (Homo sapiens, UniProt P08473).
T1 construct: purchased R&D Systems, Minneapolis, MN 1182-ZN
T1 sequence (P08473 52-750 limits assumed): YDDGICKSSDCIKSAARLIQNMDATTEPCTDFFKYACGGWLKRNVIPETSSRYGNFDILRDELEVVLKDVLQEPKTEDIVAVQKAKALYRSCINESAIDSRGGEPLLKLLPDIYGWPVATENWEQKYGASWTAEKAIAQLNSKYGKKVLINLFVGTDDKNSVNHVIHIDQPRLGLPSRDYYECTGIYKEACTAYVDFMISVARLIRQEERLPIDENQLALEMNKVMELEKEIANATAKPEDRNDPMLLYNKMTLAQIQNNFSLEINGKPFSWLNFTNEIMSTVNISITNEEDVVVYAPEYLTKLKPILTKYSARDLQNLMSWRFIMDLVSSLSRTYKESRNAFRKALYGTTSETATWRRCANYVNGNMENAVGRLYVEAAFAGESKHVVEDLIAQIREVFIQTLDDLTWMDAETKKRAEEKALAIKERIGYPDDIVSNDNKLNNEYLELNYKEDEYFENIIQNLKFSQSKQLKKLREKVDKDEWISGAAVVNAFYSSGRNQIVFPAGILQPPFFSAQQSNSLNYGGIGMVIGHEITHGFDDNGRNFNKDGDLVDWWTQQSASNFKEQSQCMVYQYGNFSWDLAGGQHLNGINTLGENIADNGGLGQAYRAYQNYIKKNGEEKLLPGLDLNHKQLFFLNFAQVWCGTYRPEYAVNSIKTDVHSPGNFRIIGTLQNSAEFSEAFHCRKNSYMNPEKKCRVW
Description: In vitro enzyme inhibition assay at human NEP (fluorogenic peptide substrate). The format is biochemical. The conditions noted are these: recombinant human NEP; 10 μM fluorogenic substrate Mca-D-Arg-Arg-Leu-Dap-(Dnp)-OH; 37° C.; 30 minute preincubation; read-out: pKi value at human NEP (converted). How it is done: In Vitro Assays for the Quantitation of Inhibitor Potencies (IC50) at Human and Rat NEP, and Human ACE
The inhibitory activities of compounds at human and rat neprilysin (EC 3.4.24.11; NEP) and human angiotensin converting enzyme (ACE) were determined using in vitro assays as described below.
Recombinant human NEP and recombinant human ACE were obtained commercially (R&D Systems, Minneapolis, MN, catalog numbers 1182-ZN and 929-ZN, respectively). The fluorogenic peptide substrate Mca-D-Arg-Arg-Leu-Dap-(Dnp)-OH (Medeiros et al. (1997) Braz. J. Med. Biol. Res. 30:1157-62; Anaspec, San Jose, CA) and Abz-Phe-Arg-Lys(Dnp)-Pro-OH (Araujo et al. (2000) Biochemistry 39:8519-8525; Bachem, Torrance, CA) were used in the NEP and ACE assays respectively.
The assays were performed in 384-well white opaque plates at 37° C. using the fluorogenic peptide substrates at a concentration of 10 μM in Assay Buffer (NEP: 50 mM HEPES, pH 7.5, 100 mM NaCl, 0.01% polyethylene glycol sorbitan monolaurate (Tween-20), 10 μM ZnSO4; ACE: 50 mM HEPES, pH 7.5, 100 mM NaCl, 0.01% Tween-20, 1 μM ZnSO4).
Test compounds were assayed over the range of concentrations from 10 μM to 20 pM. Test compounds were added to the enzymes and incubated for 30 minute at 37° C. prior to initiating the reaction by the addition of substrate. Reactions were terminated after 20 minutes of incubation at 37° C. by the addition of glacial acetic acid to a final concentration of 3.6% (v/v).
Plates were read on a fluorometer with excitation and emission wavelengths set to 320 nm and 405 nm, respectively. Inhibition constants were obtained by nonlinear regression of the data using the equation (GraphPad Software, Inc., San Diego, CA): ν=ν0/[1+(I/K′)] where ν is the reaction rate, ν0 is the uninhibited reaction rate, I is the inhibitor concentration and K′ is the apparent inhibition constant.
Take `CCOn1cc(C(=O)N[C@H](Cc2ccc(-c3cc(Cl)ccc3F)cc2)C[C@@](C)(CO)C(=O)O)nn1` [Example 4C, (2S,4R)-5-(5′-Chloro-2′-fluorobiphenyl-4-yl)-4-[(1-ethoxy-1H-[1,2,3]triazole-4-carbonyl)-amino]-2-hydroxymethyl-2-methylpentanoic Acid]: the Ki was at most 1 nM. With `C[C@@](CO)(C[C@@H](Cc1ccc(-c2cc(Cl)ccc2F)cc1)NC(=O)c1coc(=O)[nH]1)C(=O)O` [Example 5C, (2S,4R)-5-(5′-Chloro-2′-fluorobiphenyl-4-yl)-2-hydroxymethyl-2-methyl-4-[(2-oxo-2,3-dihydro-oxazole-4-carbonyl)amino]pentanoic Acid], the Ki is at most 1 nM. As for `C[C@@](CO)(C[C@@H](Cc1ccc(-c2cc(Cl)ccc2F)cc1)NC(=O)c1c[nH]c(=O)o1)C(=O)O` [Example 5D, (2S,4R)-5-(5′-Chloro-2′-fluorobiphenyl-4-yl)-2-hydroxymethyl-2-methyl-4-[(2-oxo-2,3-dihydro-oxazole-5-carbonyl)amino]pentanoic Acid], the Ki is at most 1 nM.

As to `COc1cc(C(=O)N[C@H](Cc2ccc(-c3cccc(Cl)c3)cc2)C[C@@](C)(CO)C(=O)O)on1` [Example 6A, (2S,4R)-5-(3′-Chlorobiphenyl-4-yl)-2-hydroxymethyl-4-[(3-methoxyisoxazole-5-carbonyl)amino]-2-methylpentanoic Acid], the Ki was at most 1 nM. For the compound `COC[C@](C)(C[C@@H](Cc1ccc(-c2cccc(Cl)c2)cc1)NC(=O)c1cc(OC)no1)C(=O)O` [Example 6B, (2S,4R)-5-(3′-Chlorobiphenyl-4-yl)-4-[(3-methoxyisoxazole-5-carbonyl)amino]-2-methoxymethyl-2-methylpentanoic Acid], the Ki was 10 to 100 nM.

`COc1cc(C(=O)N[C@H](Cc2ccc(-c3cc(Cl)ccc3F)cc2)C[C@@](C)(CO)C(=O)O)on1` [Example 6G, (2S,4R)-5-(5′-Chloro-2′-fluorobiphenyl-4-yl)-2-hydroxymethyl-4-[(3-methoxyisoxazole-5-carbonyl)amino]-2-methylpentanoic Acid]: the Ki is at most 1 nM. As to `CCc1cc(C(=O)N[C@H](Cc2ccc(-c3cc(Cl)ccc3F)cc2)C[C@@](C)(CO)C(=O)O)on1` [Example 6H], the Ki is at most 1 nM.

Consider `CC(C)Cc1cc(C(=O)N[C@H](Cc2ccc(-c3cc(Cl)ccc3F)cc2)C[C@@](C)(CO)C(=O)O)on1` [Example 6I, (2S,4R)-5-(5′-Chloro-2′-fluorobiphenyl-4-yl)-2-hydroxymethyl-4-[(3-isobutylisoxazole-5-carbonyl)amino]-2-methylpentanoic Acid], for which the Ki is at most 1 nM. In the case of `CCCc1cc(C(=O)N[C@H](Cc2ccc(-c3cc(Cl)ccc3F)cc2)C[C@@](C)(CO)C(=O)O)on1` [Example 6J, (2S,4R)-5-(5′-Chloro-2′-fluorobiphenyl-4-yl)-2-hydroxymethyl-2-methyl-4-[(3-propylisoxazole-5-carbonyl)amino]pentanoic Acid], the Ki is at most 1 nM.

Regarding `COC[C@](C)(C[C@@H](Cc1ccc(-c2cc(Cl)ccc2F)cc1)NC(=O)c1cc(O)no1)C(=O)O` [Example 6K, (2S,4R)-5-(5′-Chloro-2′-fluorobiphenyl-4-yl)-4-[(3-hydroxyisoxazole-5-carbonyl)amino]-2-methoxymethyl-2-methylpentanoic Acid], the Ki was 1 to 3.16 nM. For `C[C@@](COCCO)(C[C@@H](Cc1ccc(-c2cccc(Cl)c2)cc1)NC(=O)c1cc(O)no1)C(=O)O` [Example 6L, (2S,4R)-5-(3′-Chlorobiphenyl-4-yl)-2-(2-hydroxyethoxymethyl)-4-[(3-hydroxyisoxazole-5-carbonyl)amino]-2-methylpentanoic Acid] the value was at most 1 nM. On to `CCOC[C@](C)(C[C@@H](Cc1ccc(-c2cccc(Cl)c2)cc1)NC(=O)c1cc(O)no1)C(=O)O` [Example 6M], for which the Ki was at most 1 nM.
